Laboratory results reported in PMC3225327 (Journal of Biomedical Science, 2011).
Entries after “also recorded” stand apart in the source; their conditions may differ.

Assays:
[1] = test system: ovalbumin-induced airway hyperresponsiveness; test: Airway hyperresponsiveness, barometric plethysmography (Penh) in OVA-sensitized and challenged mice; assay type: in vivo, BABL/c mice
Description: According to the schedule (Figure 1), ten female BABL/c mice in each group were sensitized by an intraperitoneal (i.p.) injection of 20 μg of OVA emulsified in 2.25 mg of an aluminum hydroxide gel, prepared from aluminum sulfate hexadecahydrate, in a total volume of 100 μl on days 0 and 14. On day 21, these mice were injected with (i.p.) 100 μl of a mixture of 1% OVA and Freund's complete adjuvant (1:1). Mice were challenged via the airway using 1% OVA in saline for 30 min on days 28, 29, and 30 by ultrasonic nebulization. After the last of OVA challenges, AHR was assessed on day 32 (48 h after 1% OVA provocation) in each group. […] For comparison, sham-treated mice were challenged with saline instead of 1% OVA (non-challenged). […] AHR was assessed using two methods: (1) in anesthetized ventilated mice, AHR was assessed as previously described by measuring changes in the airway resistance (RL, cmH2O/ml/sec) and lung dynamic compliance (Cdyn, ml/cmH2O) after challenge with aerosolized methacholine (MCh, 0.78~25 mg/ml) using the FlexiVent system (SCIREQ, Montreal, Quebec, Canada). Anesthetized (urethane 600 mg/kg and chloralose 120 mg/kg, i.p.), tracheostomized (stainless-steel cannula, 18 G) mice were mechanically ventilated (at 150 breaths/min, with a tidal volume of 10 ml/kg, positive end-expiratory pressure of 3 cmH2O). (2) in unrestrained animals by barometric plethysmography using a whole-body plethysmograph (WBP) and analyzed using software of Life Science Suite P3 Analysis Modules (Gould, LDS Test and Measurement LLC, Valley View, OH, USA). Mice were placed into the main chamber of the WBP, and the baseline enhanced pause (Penh) value was determined.

[2] = test system: inflammatory cells in bronchoalveolar lavage fluid; test: Inflammatory cell counts in BALF of sensitized and challenged mice; assay type: in vivo, BABL/c mice; conditions: 3~30 μmol/kg p.o.
Description: According to the schedule (Figure 1), ten female BABL/c mice in each group were sensitized by an intraperitoneal (i.p.) injection of 20 μg of OVA emulsified in 2.25 mg of an aluminum hydroxide gel, prepared from aluminum sulfate hexadecahydrate, in a total volume of 100 μl on days 0 and 14. On day 21, these mice were injected with (i.p.) 100 μl of a mixture of 1% OVA and Freund's complete adjuvant (1:1). Mice were challenged via the airway using 1% OVA in saline for 30 min on days 28, 29, and 30 by ultrasonic nebulization. After the last of OVA challenges, AHR was assessed on day 32 (48 h after 1% OVA provocation) in each group. […] For comparison, sham-treated mice were challenged with saline instead of 1% OVA (non-challenged). […] AHR was assessed using two methods: (1) in anesthetized ventilated mice, AHR was assessed as previously described by measuring changes in the airway resistance (RL, cmH2O/ml/sec) and lung dynamic compliance (Cdyn, ml/cmH2O) after challenge with aerosolized methacholine (MCh, 0.78~25 mg/ml) using the FlexiVent system (SCIREQ, Montreal, Quebec, Canada). Anesthetized (urethane 600 mg/kg and chloralose 120 mg/kg, i.p.), tracheostomized (stainless-steel cannula, 18 G) mice were mechanically ventilated (at 150 breaths/min, with a tidal volume of 10 ml/kg, positive end-expiratory pressure of 3 cmH2O). (2) in unrestrained animals by barometric plethysmography using a whole-body plethysmograph (WBP) and analyzed using software of Life Science Suite P3 Analysis Modules (Gould, LDS Test and Measurement LLC, Valley View, OH, USA). Mice were placed into the main chamber of the WBP, and the baseline enhanced pause (Penh) value was determined. […] Twenty-four hours after Penh determination, these mice were anesthetized with pentobarbital (50 mg/kg, i.p.), and the lungs were lavaged via a tracheal tube with PBS (1 × 1.0 ml, 37°C). After lavage, blood was collected from the jugular vein and allowed to sit so that it would coagulate. The collected bronchoalveolar lavage fluid (BALF) and coagulated blood were respectively centrifuged at 630 g for 7 min and at 3700 g for 10 min at 4°C. After centrifugation, the BALF and serum supernatants were stored at -20°C until determination of cytokines, including interleukin (IL)-2, IL-4, IL-5, tumor necrosis factor (TNF)-α, and interferon (IFN)-γ by flow cytometric methods using mouse T helper (Th)1/Th2 cytokine CBA kits, and of total immunoglobulin (Ig)E or IgG2a using ELISA kits (Pharmingen, San Diego, CA, USA) according to the respective recommendations of the manufacturers. OVA-specific IgE was measured as described previously. Wells were coated with 100 μl of OVA (20 μg/ml) instead of the capture antibody. Levels are expressed in arbitrary units, where 1 arbitrary unit equals the optical density of the sample divided by the optical density of unchallenged mouse serum or BALF (standard). The BALF pellet was resuspended in ACK lysing buffer (1.658 g NH4Cl, 0.2 g KHCO3 and 1.44 mg EDTA in 200 ml of water) to lyse the residual erythrocytes in each sample. The number of inflammatory cells was counted using a hemocytometer (Hausser Scientific, Horsham, PA, USA). Cytospun slides were stained and differentiated in a blinded fashion by counting at least 100 cells under light microscopy. All undetectable data (< 1 pg/ml) of cytokines were taken as 0 pg/ml.

PDE5 = test: Inhibition of PDE5 activity, two-step procedure; assay type: biochemical; conditions: homogenate of guinea pig lungs or hearts
Description: (§1) Activities of PDE1~5 in the homogenate of guinea pig lungs or hearts were measured by a two-step procedure according to the previous method, using cAMP with [^3H]-cAMP or cGMP with [^3H]-cGMP as substrates. […] The reagents and homogenate were mixed on ice, and the reaction was initiated by transferring the mixture to a water bath at 37°C. Following a 30-min incubation, the reaction was stopped by transferring the reaction vessel to a bath of boiling water for 3 min. After cooling on ice, 20 μl of a 1 mg/ml solution of Crotalus atrox snake venom was added to the reaction mixture, and the mixture was incubated at 37°C for 10 min. Unreacted [^3H]-cAMP or [^3H]-cGMP was removed by the addition of 500 μl of a 1-in-1 Tris-HCl (40 mM) buffer suspension of Dowex resin (1 × 8-200) with incubation on ice for 30 min. Each tube was then centrifuged at 3700 g for 2 min, and 150 μl of the supernatant was removed for liquid scintillation counting. […] The total protein in each fraction used was assayed according to a previous method. PDE activities are reported as nmol/mg/min.

PDE4 = test: Inhibition of PDE4 activity, two-step procedure and Lineweaver-Burk analysis; assay type: biochemical, guinea pig
Description: as §1

SMILES: COc1cc(O)c2c(c1)O[C@H](c1ccc(OC)c(OC)c1)CC2=O [HDME, hesperetin-7,3'-O-dimethylether]
- Penh value at the baseline ([1]; 3 μmol/kg p.o.): 2.45 ± 0.04
- Penh value with PBS nebulization ([1]; 3 μmol/kg p.o.): 2.43 ± 0.05
- Penh value at the baseline ([1]; 10 μmol/kg p.o.): 2.36 ± 0.05
- Penh value with PBS nebulization ([1]; 10 μmol/kg p.o.): 2.38 ± 0.06
- Penh value at the baseline ([1]; 30 μmol/kg p.o.): 2.43 ± 0.03
- Penh value with PBS nebulization ([1]; 30 μmol/kg p.o.): 2.44 ± 0.06
- effect on enhancement of Penh values induced by MCh ([1]; 3~30 μmol/kg p.o., 25 and 50 mg/ml MCh): dose-dependently and significantly attenuated
- effect on increase in number of eosinophils in BALF [2]: significantly suppressed; also recorded: abolished
- effect on increase in number of lymphocytes in BALF [2]: significantly suppressed
- effect on increase in number of macrophages in BALF [2]: significantly suppressed
- effect on increase in number of neutrophils in BALF [2]: significantly suppressed
- effect on increase in number of total inflammatory cells in BALF [2]: significantly suppressed
- IC50 (PDE5): > 100 µM
- mode of PDE4 inhibition (PDE4; Lineweaver-Burk analysis, inhibitor 1~10 μM): competitively inhibited
- Ki (PDE4; Lineweaver-Burk analysis, inhibitor 1~10 μM, substrate cAMP, read-out: dissociation constant for inhibitory binding (Ki), PDE4): 2.1 ± 1.3 µM
- IC50 (PDE4; homogenate of guinea pig lungs or hearts): 3 ± 0.9 µM
